Broadly, the EC50 is the concentration giving half of the maximal effect. A word on the logD: it is the decadic logarithm of the distribution of all forms, ionised or not, between an organic phase and buffer at a given pH. High values mean higher lipophilicity, low ones lower lipophilicity. What is called IC50 is the concentration that inhibits the measured activity by half. As usually defined, the solubility is the concentration that dissolves in the medium under given conditions. A lower solubility goes with little dissolved substance.

On the set-up of data set [1]: method as in doi:10.1158/1538-7445.AM2019-2. As to conditions: cited from earlier work.
Data set [2] deals with Jurkat cells. The data set can be described thus: CFSE-based cytotoxic activity assay. The conditions noted are these: concentration inducing cytotoxicity ≥30%, 3 days.
Data set [3] deals with THP1 cells. The experiment in a line: Annexin V apoptosis assay in THP1. As to conditions: Homo sapiens.
Data set [4] concerns THP1 cells. The experiment in a line: Differentiation assay (CD14 expression) in THP1. As to conditions: Homo sapiens.
For data set [5] the following is noted: cited from earlier work.
For data set [6], the system named is U937 cells. The experiment in a line: Annexin V apoptosis assay in U937. As to conditions: Homo sapiens, U-937, 72 h, read-out: apoptosis EC50 U937 (CL 95%).
For data set [7], the system named is U937 cells. The experiment in a line: Differentiation assay (CD11b expression) in U937. The conditions noted are these: Homo sapiens, U-937, 72 h, read-out: differentiation EC50 U937 (CL 95%).
Data set [8] is described as follows: LogD7.4, shake-flask n-octanol/PBS. As to conditions: n-octanol/PBS, pH 7.4.
Procedure: The partition coefficients between n-octanol and PBS at pH 7.4 (LogD^7.4) were obtained using the shake-flask technique at room temperature. In the shake-flask experiments, 50 mM phosphate buffered saline, pH 7.4, was used as the aqueous phase. The organic (n-octanol) and aqueous phases were mutually saturated by shaking for 4 h. The compounds were solubilized in the buffered aqueous phase at the highest concentration compatible with solubility, and appropriate amounts of n-octanol were added. The two phases were shaken for about 20 min, by which time the partitioning equilibrium of solutes had been reached, and then centrifuged (10 000 rpm, 10 min). The concentration of the solutes was measured in the aqueous phase using a UV spectrophotometer (Varian Cary 50BIO); absorbance values (recorded for each compound at the wavelength of maximum absorption) were interpolated in calibration curves obtained using standard solutions of the compounds (r^2 > 0.99). Each log D value is an average of at least six measurements.
Data set [9] concerns the target T1, recombinant hDHODH (Homo sapiens, UniProt Q02127).
T1 construct: made in house; host or cells: E. coli BL21DE3 PyrD
The data set can be described thus: hDHODH inhibition assay (DCIP reduction). It counts as biochemical. The method, then: BL21DE3 PyrD E. coli cells were transformed using the plasmid construct pFN2A–hDHODH (kindly given by Department of Drug Science and Technology, University of Turin, Turin, Italy). The vector produces hDHODH as an N-terminal GST-fusion protein. Cells were grown at 37 °C in LB medium supplemented with 0.1 mM flavin mononucleotide (Cayman Chemical). […] Triton X-100 was added to the lysate, to a final concentration of 1%, before centrifugation at 14 000g for 40 min at 4 °C. The clarified supernatant was incubated with DNase I for 30 min at room temperature, supplemented with 2 mM dithiothreitol (DTT), and filtered through a 0.45 μm syringe filter as previously described by Sainas et al.[18] The GST-fused enzyme was purified from the bacterial lysate using affinity chromatography on immobilized glutathione-Sepharose columns (GE- […]). The GST tag was not cleaved for further analysis. All the reagents used in the protein expression and purification were supplied by Merck/Sigma-Aldrich if not otherwise specified.
The enzymatic inhibition assay was optimized for being performed on a 96-well plate and to achieve higher throughput. For each well of the plate a total volume of 200 μL was used: 5 μL of purified GST-hDHODH; 60 μL of 2,6-dichloroindophenol (DCIP) 50 μM; 20 μL of coenzyme Q10 enzyme 100 μM; 20 μL of dihydroorotate (DHO) 500 μM; Tris-HCl, pH 8, up to a final volume of 200 μL. Inhibitory activity was assessed by monitoring the reduction of DCIP, which is associated with the oxidation of dihydroorotate as catalyzed by the DHODH enzyme. The enzyme was preincubated for 5 min at 37 °C in Tris-HCl, pH 8, with coenzyme Q10, with DCIP (50 μM), and with the compounds to be tested used at different concentrations (final DMSO concentration 0.1% v/v). The reaction was initiated by the addition of DHO (500 μM), and the absorbance kinetic reduction was monitored at λ = 650 nm using a multiplate reader (Tecan, M1000Pro). In order to assess the minimum and maximum absorbance values of the enzymatic reaction, a Min control value was obtained by measuring the absorbance without DHO. Similarly, a Max value was obtained by measuring the absorbance with DHO but no inhibitor. A blank reduction calculation was also performed by measuring the absorbance values using 180 μL of Tris-HCl and 20 μL of coenzyme Q10. The instrument was set to read the absorbance values every 10 s for a total read time of 10 min at 37 °C. […] Values are the mean ± SE of three independent experiments.

Data set [10] is described as follows: Protein binding in vitro (ultrafiltration). The class given is in vitro ADME. As to conditions: male, human serum, 37 °C, read-out: protein binding (% bond) (converted). The method, then:
This was achieved via ultrafiltration using commercially available membrane systems (Centrifree ultrafiltration devices with ultracel YM-T membrane, Merck). […] 1 mL of the solution obtained in the sample reservoir of the ultrafiltration device was gently shaken in an orbital shaker at 37 °C for 1 h. […] The concentrations of the compounds in the ultrafiltrate and filtrate were determined using reverse-phase UHPLC, and the chromatographic conditions were those described above with different injection volumes: 20 μL for ultrafiltrate samples and 2 μL for filtrate samples.

The nature of data set [11]: Solubility assay at pH 7.4 in PBS. The class given is physicochemical. The conditions noted are these: pH 7.4, 25 °C, 24 h, LOD 6 μM. The method, then:
These suspensions were filtered through a PTFE 0.45 μm filter (VWR), and the solutions were chromatographically analyzed using a PerkinElmer ultrahigh performance liquid chromatography (UHPLC) instrument, equipped with a reverse-phase (RP) C18 Phenomenex column (2.1 mm × 100 mm, 1.7 μm particle size). […] The flow rate was 0.5 mL/min. Standard injection volumes were either 2 or 4 μL for poorly soluble compounds. The detection system was a PerkinElmer diode array detector. The wavelengths that were monitored for each compound were defined according to the compound’s own absorption spectrum. Solubility, expressed as μM concentration of the saturated solution, was calculated via interpolation with external calibration curves that were obtained with solutions of each compound in acetonitrile.

The test system of data set [12] is THP1 cells. The data set can be described thus: Fixed-concentration screening of differentiation (CD14) and apoptosis (annexin V) in THP1, with or without uridine. It counts as cell-based, human. As to conditions: THP1, 0.1 μM. On the procedure:
DMSO (dimethyl sulfoxide) acts as the negative control group as it was used to solubilize hDHODH inhibitors. ∗, ∗∗, ∗∗∗ represent the statistical significance for apoptosis (respectively p < 0.05, < 0.01, and <0.001). #, ##, and ### represent the statistical significance for differentiation (respectively p < 0.05, <0.01, and <0.001). The statistical significance is calculated by comparing the compounds to DMSO.
The statistical significance is calculated by comparing the compounds to DMSO.

The conditions of data set [13]: cited from earlier work. This is another data set of the same source.
Where [14] appears, read: THP-1, 72 h, read-out: apoptosis EC50 THP1 (CL 95%).
Where [15] appears, read: THP-1, 72 h, read-out: differentiation EC50 THP1 (CL 95%).

Structures are written as SMILES. Read-outs that look alike come from different tables or passages of the source.

T1 sequence (Q02127 whole entry): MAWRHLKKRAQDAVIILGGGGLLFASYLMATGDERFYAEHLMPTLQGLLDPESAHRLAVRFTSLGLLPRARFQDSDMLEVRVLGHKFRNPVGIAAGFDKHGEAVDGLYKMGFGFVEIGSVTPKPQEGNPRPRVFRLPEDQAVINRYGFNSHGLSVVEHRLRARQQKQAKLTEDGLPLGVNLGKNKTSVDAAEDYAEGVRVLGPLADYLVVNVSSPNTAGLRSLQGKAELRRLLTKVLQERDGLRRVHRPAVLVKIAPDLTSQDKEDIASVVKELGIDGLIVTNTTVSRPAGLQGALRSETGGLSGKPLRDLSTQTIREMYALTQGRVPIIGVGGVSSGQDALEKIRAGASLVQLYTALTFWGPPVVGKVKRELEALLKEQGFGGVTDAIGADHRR

On to `CCn1c(CO)nn(-c2cc(O[C@@H](C)C(F)(F)F)c(C(=O)Nc3c(F)cccc3Cl)cc2F)c1=O` [BAY-2402234, reference compound], for which the “solubility in PBS” value in data set [1] was <1[31] μM. The “cytoxicity Jurkat (effect ≥30% ± SD)” value in data set [2] worked out at 36 ± 4 µM. Further, the EC50 in [3] (setting [14]) stood at 3.4 nM; in data set [4] (setting [15]), 2.4 nM. Besides, in [5], the “LogD^7.4” value is 2.7[27].
For `O=C(Nc1c(F)c(F)c(-c2cccc(F)c2)c(F)c1F)c1c(O)nn2ccccc12` [Compound 11, 2-Hydroxy-N-(2,3,3′,5,6-pentafluoro-[1,1′-biphenyl]-4-yl)pyrazolo[1,5-a]pyridine-3-carboxamide], the EC50 stood at 68.2 nM in data set [6]; 40.7 nM in [7]; 250 nM in data set [3] (setting [14]); 222 nM in data set [3] (THP-1, read-out: Apoptosis EC50 (C.L.95%) (supplement CSV)); 67.6 nM in data set [4] (setting [15]); 58.9 nM in [4] (THP-1, read-out: Differentiation EC50 (C.L.95%) (supplement CSV)). The logD in data set [8] worked out at 2.09 ± 0.04. Also, the “cytoxicity Jurkat (effect ≥30% ± SD)” value in data set [2] amounted to 39 ± 3 µM. Further, the IC50 in data set [9] (mean ± SE of three independent experiments, read-out: hDHODH, IC50 ± SE) was 2.03 ± 0.44 nM; in data set [9] (supplementary CSV, values differ from Table 2, read-out: hDHODH IC50 ± SE (supplement CSV)), 2.37 ± 0.35 nM. Also, the fraction unbound at 1 h, 50 µM in data set [10] is 0.0004. Besides, in [11], the “solubility in PBS” value is reported as “<LOD”. In addition, in data set [11] (phosphate buffered saline), the solubility at 24 h was less than 6 µM. Also, the “activity in cells (differentiation and apoptosis)” value in [12] is recorded as “highly active”.
Take `COc1cccc(-c2cc(F)c(Nc3ncccc3C(=O)O)c(F)c2)c1` [ASLAN003]: the “protein binding (% bond)” value in data set [13] is >99[25] %.

Values taken from paper PMC8279415, “Targeting Acute Myelogenous Leukemia Using Potent Human Dihydroorotate Dehydrogenase Inhibitors Based on the 2-Hydroxypyrazolo[1,5-a]pyridine Scaffold: SAR of the Biphenyl Moiety” (Journal of Medicinal Chemistry, 2021).
